Results from ChEMBL document CHEMBL1123909, “New inhibitors of human renin that contain novel Leu-Val replacements” (J Med Chem, 1987).

Key:
Renin [1] = biological target: T1, Renin (Homo sapiens, UniProt P00797); test: Inhibition of human renal renin at the pH optimum 6.0.
T1 sequence (P00797 whole entry): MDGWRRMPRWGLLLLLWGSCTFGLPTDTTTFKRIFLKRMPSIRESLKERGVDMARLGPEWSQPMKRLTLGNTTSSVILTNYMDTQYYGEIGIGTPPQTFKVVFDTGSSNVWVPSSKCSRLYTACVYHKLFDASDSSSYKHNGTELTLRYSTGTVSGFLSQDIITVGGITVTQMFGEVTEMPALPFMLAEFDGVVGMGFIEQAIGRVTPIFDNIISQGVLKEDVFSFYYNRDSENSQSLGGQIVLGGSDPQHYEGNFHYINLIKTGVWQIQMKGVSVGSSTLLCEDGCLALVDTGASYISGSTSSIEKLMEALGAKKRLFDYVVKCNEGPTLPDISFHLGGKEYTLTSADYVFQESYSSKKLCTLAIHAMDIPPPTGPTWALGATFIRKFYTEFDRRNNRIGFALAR

Renin (Homo sapiens) [2] = biological target: T2, Renin (Homo sapiens) (UniProt P00797); test: Inhibition of human renal renin at the concentration of 10e-5 M.
T2 sequence (whole entry): T1 sequence (P00797 whole entry)

Pepsin A (Sus scrofa) = Pepsin A (Sus scrofa) (UniProt P00791); test: Inhibition of porcine pepsin; set-up: concentration or dose not given beside the values; settings: concentration not given here
Renin (Homo sapiens) [3] = biological target: T2, Renin (Homo sapiens); test: The compound was tested for inhibition of human renal renin at the concentration of 10e-5 M (compound with OH epimer)
Renin (Homo sapiens) [4] = biological target: T2, Renin (Homo sapiens); test: The compound was tested for inhibition of human renal renin at the concentration of 10e-6 M
Renin [5] = biological target: T1, Renin; test: The compound was tested for inhibition of human renal renin at the pH optimum 7.4
Renin (Homo sapiens) [6] = biological target: T2, Renin (Homo sapiens); test: The compound was tested for inhibition of human renal renin at the concentration of 10e-7 M
Renin (Homo sapiens) [7] = biological target: T2, Renin (Homo sapiens); test: The compound was tested for inhibition of human renal renin at the concentration of 10e-5 M (2:1 mixture of S:R diastereomers at the carbon bearing the hydroxyl group.

Pepsin A (Sus scrofa), sequence (P00791 60-385 limits assumed): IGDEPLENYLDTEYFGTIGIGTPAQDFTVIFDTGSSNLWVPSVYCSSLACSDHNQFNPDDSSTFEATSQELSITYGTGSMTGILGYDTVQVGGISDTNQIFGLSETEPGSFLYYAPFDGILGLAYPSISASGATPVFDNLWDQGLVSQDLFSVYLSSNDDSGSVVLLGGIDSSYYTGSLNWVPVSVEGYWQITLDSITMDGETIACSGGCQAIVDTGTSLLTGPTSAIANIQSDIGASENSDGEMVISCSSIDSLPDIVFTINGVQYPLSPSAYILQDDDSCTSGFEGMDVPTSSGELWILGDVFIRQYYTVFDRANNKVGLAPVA

Row | SMILES | IC50 (Renin [1]) [nM] | inhibition (Renin (Homo sapiens) [2]) [%] | further results
1 | CC(C)CC[C@@H](O)[C@H](CC(C)C)NC(=O)[C@H](C)NC(=O)[C@H](Cc1ccccc1)NC(=O)OC(C)(C)C | – | – | inhibition (Renin (Homo sapiens) [3]): 16%
2 | CC(C)CCC[C@@H](O)[C@@H](CC(C)C)NC(=O)[C@H](Cc1c[nH]cn1)NC(=O)[C@H](Cc1ccccc1)NC(=O)OC(C)(C)C | 600 | 97 | –
3 | CC(C)C[C@@H](NC(=O)[C@H](C)NC(=O)[C@H](Cc1ccccc1)NC(=O)OC(C)(C)C)[C@H](O)CNC(C)C | – | 5 | –
4 | CC(C)CC[C@@H](O)[C@@H](CC(C)C)NC(=O)[C@H](Cc1c[nH]cn1)NC(=O)[C@H](Cc1ccc2ccccc2c1)NC(=O)OC(C)(C)C | 600 | – | inhibition (Renin (Homo sapiens) [4]): 87%
5 | CC(C)COC[C@@H](O)[C@@H](CC(C)C)NC(=O)[C@H](Cc1c[nH]cn1)NC(=O)[C@H](Cc1ccccc1)NC(=O)OC(C)(C)C | 650 | 94 | inhibition (Pepsin A (Sus scrofa)): 0%
6 | CC(C)CC[C@@H](O)[C@@H](CC(C)C)NC(=O)[C@H](Cc1c[nH]cn1)NC(=O)[C@H](Cc1cccc2ccccc12)NC(=O)OC(C)(C)C | – | – | inhibition (Renin (Homo sapiens) [4]): 93%; IC50 (Renin [5]): 150 nM; inhibition (Pepsin A (Sus scrofa)): 6%
7 | CC(C)C[C@@H](NC(=O)[C@H](Cc1ccc(O)cc1)NC(=O)[C@H](Cc1ccccc1)NC(=O)OC(C)(C)C)[C@H](O)CSc1ccccc1 | – | 21 | inhibition (Pepsin A (Sus scrofa)): 11%
8 | CC(C)C[C@@H](NC(=O)[C@H](C)NC(=O)[C@H](Cc1ccccc1)NC(=O)OC(C)(C)C)[C@H](O)CSC1CCCC1 | 1000 | 94 | –
9 | CC(C)C[C@H](NC(=O)[C@H](Cc1c[nH]cn1)NC(=O)[C@H](Cc1ccccc1)NC(=O)OC(C)(C)C)[C@@H](O)CSC1CCCCC1 (stereo in doubt; 56) [listing 1 of 2 here] | 520 | – | –
10 | CC(C)C[C@@H](NC(=O)[C@H](Cc1c[nH]cn1)NC(=O)[C@H](Cc1ccccc1)NC(=O)OC(C)(C)C)[C@H](O)CS(=O)(=O)C(C)C | 200 | 99 | inhibition (Pepsin A (Sus scrofa)): 3%
11 | CC(C)C[C@H](NC(=O)[C@H](Cc1c[nH]cn1)NC(=O)[C@H](Cc1ccccc1)NC(=O)OC(C)(C)C)[C@@H](O)CSC1CCCCC1 (stereo in doubt; 55) [listing 1 of 2 here] | 35 | – | –
12 | CC(C)CCS(=O)(=O)C[C@@H](O)[C@@H](CC(C)C)NC(=O)[C@H](Cc1c[nH]cn1)NC(=O)[C@H](Cc1ccccc1)NC(=O)OC(C)(C)C | – | 94 | IC50 (Renin [5]): 500 nM
13 | CC(C)C[C@@H](NC(=O)[C@H](Cc1c[nH]cn1)NC(=O)[C@H](Cc1ccccc1)NC(=O)OC(C)(C)C)[C@H](O)COC(C)C | 1500 | 85 | inhibition (Pepsin A (Sus scrofa)): 0%
14 | CC(C)CC[C@@H](O)[C@@H](CC(C)C)NC(=O)[C@H](Cc1c[nH]cn1)NC(=O)[C@H](Cc1ccccc1)NC(=O)OC(C)(C)C | 1500 | 89 | –
15 | CC(C)C[C@@H](NC(=O)[C@H](C)NC(=O)[C@H](Cc1ccccc1)NC(=O)OC(C)(C)C)[C@H](O)CSC1CCCCC1 | 800 | 94 | inhibition (Pepsin A (Sus scrofa)): 100%
16 | CC(C)C[C@@H](NC(=O)[C@H](Cc1c[nH]cn1)NC(=O)[C@H](Cc1ccccc1)NC(=O)OC(C)(C)C)[C@H](O)CS(=O)(=O)C1CCCCC1 | 90 | – | inhibition (Renin (Homo sapiens) [4]): 92%; inhibition (Renin (Homo sapiens) [6]): 51%
17 | CC(C)C[C@H](NC(=O)[C@H](Cc1c[nH]cn1)NC(=O)[C@H](Cc1ccccc1)NC(=O)OC(C)(C)C)[C@@H](O)CSC1CCCCC1 (stereo in doubt; 55) [listing 2 of 2 here] | – | – | inhibition (Renin (Homo sapiens) [6]): 78%
18 | CC(C)C[C@@H](NC(=O)[C@H](Cc1c[nH]cn1)NC(=O)[C@H](Cc1cccc2ccccc12)NC(=O)OC(C)(C)C)[C@H](O)CSC1CCCCC1 | 13 | – | inhibition (Renin (Homo sapiens) [6]): 85%
19 | CC(C)C[C@@H](NC(=O)[C@H](Cc1c[nH]cn1)NC(=O)[C@H](Cc1ccc2ccccc2c1)NC(=O)OC(C)(C)C)[C@H](O)CSC1CCCCC1 | – | – | inhibition (Renin (Homo sapiens) [6]): 85%; IC50 (Renin [5]): 40 nM; inhibition (Pepsin A (Sus scrofa)): 0%
20 | CC(C)C[C@@H](NC(=O)[C@H](Cc1c[nH]cn1)NC(=O)[C@H](Cc1ccccc1)NC(=O)OC(C)(C)C)[C@H](O)CS(=O)(=O)CC(C)C | – | 98 | IC50 (Renin [5]): 350 nM
21 | CC(C)C[C@@H](NC(=O)[C@H](Cc1c[nH]cn1)NC(=O)[C@H](Cc1ccccc1)NC(=O)OC(C)(C)C)[C@H](O)CNC(C)C | – | 35 | –
22 | CC(C)C[C@@H](NC(=O)[C@H](C)NC(=O)[C@H](Cc1ccccc1)NC(=O)OC(C)(C)C)[C@H](O)C[S+]([O-])C1CCCCC1 (some centres undefined) | – | 46 | –
23 | CC(C)C[C@@H](NC(=O)[C@H](C)NC(=O)[C@H](Cc1ccccc1)NC(=O)OC(C)(C)C)[C@H](O)COC(C)C | 7000 | 54 | –
24 | CC(C)C[C@@H](NC(=O)[C@H](C)NC(=O)[C@H](Cc1ccccc1)NC(=O)OC(C)(C)C)[C@H](O)CCc1ccccc1 | – | – | inhibition (Renin (Homo sapiens) [7]): 35%
25 | CC(C)C[C@H](NC(=O)[C@H](Cc1c[nH]cn1)NC(=O)[C@H](Cc1ccccc1)NC(=O)OC(C)(C)C)[C@@H](O)CSC1CCCCC1 (stereo in doubt; 56) [listing 2 of 2 here] | – | – | inhibition (Renin (Homo sapiens) [3]): 95%
26 | CC(C)C[C@@H](NC(=O)[C@H](C)NC(=O)[C@H](Cc1ccccc1)NC(=O)OC(C)(C)C)[C@H](O)CS(=O)(=O)C1CCCCC1 | 2000 | 76 | –
27 | CC(C)COC[C@@H](O)[C@@H](CC(C)C)NC(=O)[C@H](C)NC(=O)[C@H](Cc1ccccc1)NC(=O)OC(C)(C)C | 7000 | 59 | inhibition (Pepsin A (Sus scrofa)): 68%
28 | CC(C)C[C@@H](NC(=O)[C@H](Cc1c[nH]cn1)NC(=O)[C@H](Cc1ccccc1)NC(=O)OC(C)(C)C)[C@H](O)CSC(C)C | 81 | – | inhibition (Renin (Homo sapiens) [4]): 92%; inhibition (Renin (Homo sapiens) [6]): 54%

Now from value to compound, other results behind:

Row | IC50 (Renin [1]) [nM] | inhibition (Renin (Homo sapiens) [2]) [%] | SMILES | further results
29 | 10000 | 57 | CC(C)C[C@@H](NC(=O)[C@H](C)NC(=O)[C@H](Cc1ccccc1)NC(=O)OC(C)(C)C)[C@H](O)CSCc1ccccc1 | inhibition (Pepsin A (Sus scrofa)): 96%
30 | – | 12 | CC(C)C[C@@H](NC(=O)[C@H](C)NC(=O)[C@H](Cc1ccccc1)NC(=O)OC(C)(C)C)[C@H](O)C[S+]([O-])c1ccccc1 (some centres undefined) | –
31 | – | 48 | CC(C)C[C@@H](NC(=O)[C@H](C)NC(=O)[C@H](Cc1ccccc1)NC(=O)OC(C)(C)C)[C@H](O)COc1ccccc1 | inhibition (Pepsin A (Sus scrofa)): 27%
32 | – | 48 | CC(C)C[C@@H](NC(=O)[C@H](C)NC(=O)[C@H](Cc1ccccc1)NC(=O)OC(C)(C)C)[C@H](O)CSCc1cccc2ccccc12 | –
33 | 3000 | 88 | CC(C)C[C@@H](NC(=O)[C@H](C)NC(=O)[C@H](Cc1ccccc1)NC(=O)OC(C)(C)C)[C@H](O)CSC(C)(C)C | –
34 | – | 15 | CC(C)C[C@@H](NC(=O)[C@H](C)NC(=O)[C@H](Cc1ccccc1)NC(=O)OC(C)(C)C)[C@H](O)CSc1ccc(C(C)(C)C)cc1 | –
35 | 1500 | 89 | CC(C)CSC[C@@H](O)[C@@H](CC(C)C)NC(=O)[C@H](C)NC(=O)[C@H](Cc1ccccc1)NC(=O)OC(C)(C)C | –
36 | – | 23 | CC(C)C[C@@H](NC(=O)[C@H](C)NC(=O)[C@H](Cc1ccccc1)NC(=O)OC(C)(C)C)[C@H](O)CSc1ccc2ccccc2c1 | –
37 | – | 30 | CC(C)C[C@@H](NC(=O)[C@H](C)NC(=O)[C@H](Cc1ccccc1)NC(=O)OC(C)(C)C)[C@H](O)CNc1ccccc1 | –
38 | – | 48 | CC(C)C[C@@H](NC(=O)[C@H](Cc1ccccc1)NC(=O)[C@H](Cc1ccccc1)NC(=O)OC(C)(C)C)[C@H](O)CSc1ccccc1 | inhibition (Pepsin A (Sus scrofa)): 11%
39 | 3500 | 71 | CC(C)CCC[C@@H](O)[C@@H](CC(C)C)NC(=O)[C@H](C)NC(=O)[C@H](Cc1ccccc1)NC(=O)OC(C)(C)C | –
40 | 1500 | 93 | CC(C)CCSC[C@@H](O)[C@@H](CC(C)C)NC(=O)[C@H](C)NC(=O)[C@H](Cc1ccccc1)NC(=O)OC(C)(C)C | –
41 | – | 25 | CC(C)C[C@@H](NC(=O)[C@H](C)NC(=O)[C@H](Cc1ccccc1)NC(=O)OC(C)(C)C)[C@H](O)CS(=O)(=O)c1ccccc1 | –
42 | 8000 | 56 | CC(C)C[C@@H](NC(=O)[C@H](C)NC(=O)[C@H](Cc1ccccc1)NC(=O)OC(C)(C)C)[C@H](O)CSc1ccccc1 | –
43 | 700 | 90 | CC(C)C[C@H](NC(=O)[C@H](C)NC(=O)[C@H](Cc1ccccc1)NC(=O)OC(C)(C)C)[C@@H](O)CSC(C)C | inhibition (Pepsin A (Sus scrofa)): 73%
44 | 4500 | 73 | CC(C)C[C@@H](NC(=O)[C@H](C)NC(=O)[C@H](Cc1ccccc1)NC(=O)OC(C)(C)C)[C@H](O)CSCCc1ccccc1 | –
45 | – | 7 | CC(C)C[C@@H](NC(=O)[C@H](C)NC(=O)[C@H](Cc1ccccc1)NC(=O)OC(C)(C)C)[C@H](O)CSc1cccc2ccccc12 | –
46 | 1000 | 88 | CC(C)C[C@@H](NC(=O)[C@H](C)NC(=O)[C@H](Cc1ccccc1)NC(=O)OC(C)(C)C)[C@H](O)CSCCCc1ccccc1 | inhibition (Pepsin A (Sus scrofa)): 74%
47 | – | 21 | CC(C)C[C@@H](NC(=O)[C@H](C)NC(=O)[C@H](Cc1ccccc1)NC(=O)OC(C)(C)C)[C@H](O)CSc1ccc(Br)cc1 | –
48 | 2000 | 85 | CC(C)CC[C@H](O)[C@H](CC(C)C)NC(=O)[C@H](C)NC(=O)[C@H](Cc1ccccc1)NC(=O)OC(C)(C)C | –
49 | 960 | 96 | CC(C)C[C@@H](NC(=O)[C@H](Cc1c[nH]cn1)NC(=O)[C@H](Cc1ccccc1)NC(=O)OC(C)(C)C)[C@H](O)CSc1ccccc1 | inhibition (Pepsin A (Sus scrofa)): 0%
